The source of these data is US8115060B2, “Means and methods of controlling plant seed germination” (Applied Biotechnology Institute, Inc., priority 2008, dated 2012).

In series [1] the test system is corn plants expressing avidin with a constitutive promoter targeted to the cell wall. Kind of series: Reversal of avidin-induced male sterility by application of biotin to corn plants. Format: in vivo. Particulars: biotin applied to plants; unpublished results. An excerpt:
Biotin is a B vitamin and provides a safe chemical for seed treatment. In addition, biotin is inexpensive and readily available. […] When avidin was expressed in corn plants with a constitutive promoter targeted to the cell wall, male sterility occurred (14).

In series [2] the test system is seeds from transformation events containing the avidin gene. Put plainly: Germination of T1 seeds containing the avidin gene, imbibed with and without biotin. It counts as in vivo, maize.
A further series relates to non-transformed seeds. Put plainly: Germination of non-transformed seeds imbibed in water with biotin. Particulars: biotin in water used for imbibing. An excerpt:
Since our T0 plants were crossed with non-transgenic maize in the greenhouse, it is expected that half of the seeds in our initial transformed plants (T1 seed) should not carry the avidin gene.

Turning to `O=C(O)CCCC[C@@H]1SC[C@@H]2NC(=O)N[C@@H]21` [biotin], in series [1], the “reversal of male sterility caused by avidin” value was “able to reverse the effect of avidin and render the plants fertile”. Moreover, in series [2] (20 seeds from a single ear of transformed corn imbibed with biotin, after one week, best result), the “number of seeds that failed to germinate” value is given as “one”. Besides, the “change in number of non germinating seeds when biotin applied during imbibing” value in series [2] (several experiments testing 240 seeds, compared with water) is reported as “cut in half”. Further, in the series with non-transformed seeds, the “biotin concentration tolerated with no detrimental signs of any effect on germination” value was “up to 10 μg/ml”.
